# Assay results taken from patent US5770688A, “Method and composition for the treatment of mammalian HIV infection” (GSF-Forschungszentrum fur Umwelt und Gesundheit GmbH, priority 1989, dated 1998).
# Columns and labels:
# HIV-infected LC5 cells = test: MTT toxicity/killing of HIV infected cells (Biomek 1000); format: cell-based, human
# Experimental: The KE37-1 (uninfected) and KE37-1/111β (infected) cell lines discussed below are commercially available from the Dr. Robert Gallows Laboratory of the NIH in the United States of America and grown in a medium of RPMI 1640 (GIBCO) and further supplemented with 10% fetal calf serum which contained approximately 100 units of penicillin, 100 μg streptomycin, and approximately 0.25 μg fungizone (Amphotericin B) per milliliter. The human mesenchymal cell lines LC5 and LC5-HIV, discussed below, are deposited with the Collection De L'Institut Pasteur of Paris, France on Mar. 9, 1989 and given the accession numbers I-842 and I-843, respectively. The LC5 and LC5-HIV cell lines were grown in a medium of RPMI 1640 and supplemented with 10% fetal calf serum.
# A series of experiments and which are illustrated graphically in FIGS. 6 through 34, respectively, were designed to detect two extremes. In particular the tests were designed to detect the inhibition of viral release and/or the release of virus which has a reduced ability to infect other cells. This reduced ability to infect other cells is represented, for example, by glycosylation inhibitors, the direct effect on virus release is represented by acylation inhibitors, RT inhibitors and melittin (Seq. ID NO:1). The most important feature of this experimental design, however, is to detect the toxicity of melittin. The present experiments were carried out on both the astrocytoma cell line LC5-HIV (cloned infected cells) and T-lymphocytoma cell line KE37-1/IIIβ (cloned infected cells with HTLV-IIIβ). In both cases the results were essentially identical.
# In the present series of experiments HIV release was tested by a fully automated laboratory robot system and which is manufactured by Beckman Instruments as the Biomek 1000. This system performed the following steps. First, chronically infected cells (cloned) are plated in microtiter plates and grown for a period of seven days. They are then challenged by melittin (Seq. ID NO:1) during this period either for the final day or throughout the period as shown in the figures. The number of living cells are quantified by MTT, that is by a metabolic (dehydrogenase) test. The MTT test is automatically performed. The toxic effect is detected at the time of the experiment and not in a separate control experiment. Furthermore, the supernatant, and which contains released virus cells from the period of time which elapsed from the last wash, and which may vary from 24 hours to 7 days, is collected from the culture, and an aliquot is saved for virus quantification by employing antigen or viral enzyme reverse transcriptase (RT). Furthermore, an aliquot is added to a culture of uninfected cells in microtiter plates for subsequent measurement of the ability of the virus cells to reinfect these uninfected cells. In this regard, the number of infected cells is automatically quantified by an immunoperoxidase staining technique. The test results, as shown, are expressed in terms of toxicity of the melittin (MTT test); the release of HIV from the primary culture (RT test); and the ability of the released virus to infect previously uninfected cells.
# [1] = test system: feline immunodeficiency virus (FIV); test: Example 3: FIV replication in naturally infected cats, quantitative FIV-PCR; format: in vivo
# Experimental: To further investigate the effects of melittin (Seq. ID NO:1) on virus replication in retroviral infected cells or the inhibition of retroviral infected cell growth, a series of experiments were conducted utilizing cats which were naturally infected with the feline immunodeficiency virus (FIV). FIV is in its genomic and viral structure, in many respects, very similar to the human immunodeficiency virus (HIV). Therefore, it is widely regarded as similar to HIV, that is, it is a member of the Lentivirus subfamily, of the retrovirus family. Further, it has been determined that experimentally and naturally infected cats having FIV, display very similar disease characteristics such as immunedysfunction or other neurological disorders which can be taken as a relevant model for HIV infection in humans. This is discussed in greater detail in the article authored by Egberink et. al. "Suppression of feline immuno-deficiency virus infection in vivo by 9-(2-phosphonomethoxyethyl)adenine," Proc. Natl. Acad. Sci. 87, 3087-3091 (1990).
# In the following series of experiments, two naturally FIV infected cats (M and G) were used. These particular cats were kept for more than one year under constant observation in the Clinic for Internal Medicine at the Veterinary School in Munich, Germany before the onset of melittin (Seq. ID NO:1) treatment. In each cat, FIV infection had been confirmed by detecting an antibody ELISA. In this regard, a test marketed under the tradename PetChek® and which is available from the same company in Portland, Maine was employed. As best seen in FIG. 53. The antibody titer against FIV in both cats was approximately 1:50. As a general matter, the overall physical condition of both cats was good during the observation period. Further and during the experiment, cat M developed shortly before melittin treatment a pneumonitis which was not treated in a conventional fashion. The individual body weights of each cat at the beginning of melittin treatment was 4 kilograms and 2.2 kilograms for cats M and G, respectively.
# During the experiment it was determined that detectable blood serum levels of melittin (Seq. ID NO:1) of about 5 ng/ml could be detected following an injection of melittin equal to […] a few minutes after injection. […] In vitro data has shown that melittin, after this time interval, is found within the cells where it can be detected in tact for more than 48 hours. The LD50 (lethal dose where 50% of the animals perish) for melittin is not known for cats. […] The quantitative effect of melittin on FIV replication was determined quantitatively by utilizing FIV-PCR employing nested primers from the gag region. Quantification was based upon the determination of amplified product in identical samples which have been amplified after different cycle times. […]
substance,measurement,setting,value
Gly-Ile-Gly-Ala-Val-Leu-Lys-Val-Leu-Thr-Thr-Gly-Leu-Pro-Ala-Leu-Ile-Ser-Trp-Ile-Lys-Arg-Lys-Arg-Gln-Gln-Amide [melittin],killing concentration compared with concentration for effect on HIV release,HIV-infected LC5 cells,ten times higher than the effect on HIV release
same,lysis of HIV-infected LC5 cells,HIV-infected LC5 cells,able to lyse HIV-infected LC5 cells
same,"selectivity for infected cells, in words",HIV-infected LC5 cells; FIGS. 6-19,appears to not selectively affect the infected cells
same,critical concentration at which all infected cells were killed,HIV-infected LC5 cells; infected,10 μg per ml
same,reduction in virus load,"[1]; FIV model, summary",50%
same,"amplification of FIV specific sequences, in words","[1]; cat G, day 42 and following days",a reduced amplification could already be seen in the sample from day 42 and the following days
same,"amplification of FIV specific sequences, late samples, in words","[1]; cat M, days 56 and 116",reduced amplification
same,reduction of the virus load,"[1]; cat M, days 56 and 116",≥ 50%
